Molecules are shown by their SMILES.

T1 sequence (P13569 with tags, fused parts or gaps DEL508-508): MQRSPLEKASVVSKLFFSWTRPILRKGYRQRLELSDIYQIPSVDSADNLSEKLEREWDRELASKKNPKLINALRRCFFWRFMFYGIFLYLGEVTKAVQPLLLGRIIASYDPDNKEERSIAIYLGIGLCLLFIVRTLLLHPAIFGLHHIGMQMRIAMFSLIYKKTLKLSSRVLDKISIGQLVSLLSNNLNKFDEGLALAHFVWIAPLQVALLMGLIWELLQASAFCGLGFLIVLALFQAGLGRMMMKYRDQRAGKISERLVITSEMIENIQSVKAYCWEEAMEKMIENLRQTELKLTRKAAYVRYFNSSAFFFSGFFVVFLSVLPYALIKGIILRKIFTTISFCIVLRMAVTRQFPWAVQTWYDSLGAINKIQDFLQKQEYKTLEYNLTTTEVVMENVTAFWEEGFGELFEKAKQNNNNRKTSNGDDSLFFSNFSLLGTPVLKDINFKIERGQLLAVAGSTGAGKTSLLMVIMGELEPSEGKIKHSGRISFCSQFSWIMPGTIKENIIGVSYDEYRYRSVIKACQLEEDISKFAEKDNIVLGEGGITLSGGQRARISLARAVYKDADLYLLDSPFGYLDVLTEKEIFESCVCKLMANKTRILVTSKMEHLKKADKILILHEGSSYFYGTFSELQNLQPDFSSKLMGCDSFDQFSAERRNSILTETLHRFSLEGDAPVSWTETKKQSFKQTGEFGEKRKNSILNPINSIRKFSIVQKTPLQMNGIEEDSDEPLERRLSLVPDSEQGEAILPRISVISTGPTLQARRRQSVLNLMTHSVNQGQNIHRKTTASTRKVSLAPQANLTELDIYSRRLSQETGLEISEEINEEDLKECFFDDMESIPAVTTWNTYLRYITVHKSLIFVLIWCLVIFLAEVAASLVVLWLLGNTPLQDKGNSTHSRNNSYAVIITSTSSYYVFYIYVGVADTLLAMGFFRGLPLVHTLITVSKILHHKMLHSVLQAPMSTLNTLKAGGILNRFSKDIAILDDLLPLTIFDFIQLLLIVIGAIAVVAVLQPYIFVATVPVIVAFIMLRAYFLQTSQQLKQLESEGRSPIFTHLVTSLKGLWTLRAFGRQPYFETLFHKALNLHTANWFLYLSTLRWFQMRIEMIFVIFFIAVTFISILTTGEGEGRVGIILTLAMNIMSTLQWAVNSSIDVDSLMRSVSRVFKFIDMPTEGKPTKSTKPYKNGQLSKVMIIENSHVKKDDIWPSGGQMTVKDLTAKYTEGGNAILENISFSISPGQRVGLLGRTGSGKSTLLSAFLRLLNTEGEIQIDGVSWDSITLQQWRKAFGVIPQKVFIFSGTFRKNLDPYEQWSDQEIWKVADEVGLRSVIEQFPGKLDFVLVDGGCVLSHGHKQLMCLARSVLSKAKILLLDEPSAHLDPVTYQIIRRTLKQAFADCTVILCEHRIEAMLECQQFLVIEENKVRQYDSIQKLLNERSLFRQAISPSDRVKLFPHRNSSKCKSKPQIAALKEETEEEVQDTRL

The first assay has as its target T1, F508del (Homo sapiens, UniProt P13569, DEL508-508).
T1 construct: expressed in transfected cells
Put plainly: Protocol 2: FRET membrane potential optical assay (VIPR), identification of correction compounds. The format is cell-based. The conditions noted are these: F508del CFTR modulator activity; compounds of Table 1; read-out: EC30. Summed up: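 Corrector readout: membrane-potential FRET (CC2-DMPE donor, DiSBAC2(3) acceptor) on VIPR II after Cl⁻-free gluconate bath with 10 μM forskolin and 20 μM genistein. Before this, F508del-expressing NIH3T3 cells were exposed to test compound for 16 h at 37 °C without serum; 27 °C incubation served as temperature-correction control.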
For `CC1CN(c2ncccc2C(=O)NS(=O)(=O)c2cccc(OCc3cccc(-n4cccc4)c3)n2)C(C)(C)C1` (centres unmarked) [Compound 2600, N—[[6-[(3-pyrrol-1-ylphenyl)methoxy]-2-pyridyl]sulfonyl]-2-(2,2,4-trimethylpyrrolidin-1-yl)pyridine-3-carboxamide], the EC30 (in general, the concentration at which the effect reaches the 30% level) is less than 3000 nM. Regarding `CC(C)COc1cc(F)cc(-c2ccc(C(=O)NS(=O)(=O)N3C[C@@H](O)[C@H](O)C3)c(N3C[C@@H](C)CC3(C)C)n2)c1` [Compound 2534, N-[(3R,4R)-3,4-dihydroxypyrrolidin-1-yl]sulfonyl-6-(3-fluoro-5-isobutoxy-phenyl)-2-[(4S)-2,2,4-trimethylpyrrolidin-1-yl]pyridine-3-carboxamide], the EC30 is less than 3000 nM.

As to `COc1cc(F)c(F)cc1-c1ccc(C(=O)NS(=O)(=O)c2cccnc2N)c(N2C[C@@H](C)CC2(C)C)n1` [Compound 2334, N-[(2-amino-3-pyridyl)sulfonyl]-6-(4,5-difluoro-2-methoxy-phenyl)-2-[(4S)-2,2,4-trimethylpyrrolidin-1-yl]pyridine-3-carboxamide], the EC30 is less than 3000 nM. Same read-out and setting: in the case of `COc1ccc(-c2ccc(C(=O)NS(=O)(=O)c3ccc[nH]c3=O)c(N3C[C@@H](C)CC3(C)C)n2)cc1C` [Compound 2369, 6-(4-methoxy-3-methyl-phenyl)-N-[(2-oxo-1H-pyridin-3-yl)sulfonyl]-2-[(4S)-2,2,4-trimethylpyrrolidin-1-yl]pyridine-3-carboxamide] it was less than 3000 nM. The same measure, in the same setting: for `C[C@@H]1CN(c2nc(-c3cccc(F)c3F)ccc2C(=O)NS(=O)(=O)N2CC[C@H](N)C2)C(C)(C)C1` [Compound 2110, N-[(3S)-3-aminopyrrolidin-1-yl]sulfonyl-6-(2,3-difluorophenyl)-2-[(4S)-2,2,4-trimethylpyrrolidin-1-yl]pyridine-3-carboxamide] the value was more than 10000 nM; for `CC(C)COc1cc(F)cc(-c2ccc(C(=O)NS(=O)(=O)c3cccc(N)n3)c(N3C[C@H](C(F)(F)F)CC3(C)C)n2)c1` (single isomer, unassigned) [Compound 2271, N-[(6-amino-2-pyridyl)sulfonyl]-2-(2,2-dimethyl-4-(trifluoromethyl)pyrrolidin-1-yl)-6-(3-fluoro-5-isobutoxy-phenyl)pyridine-3-carboxamide], less than 3000 nM; for `COc1ccc(-c2ccc(C(=O)NS(=O)(=O)c3cccnc3N)c(N3C[C@@H](C)CC3(C)C)n2)c(F)c1F` [Compound 2302, N-[(2-amino-3-pyridyl)sulfonyl]-6-(2,3-difluoro-4-methoxy-phenyl)-2-[(4S)-2,2,4-trimethylpyrrolidin-1-yl]pyridine-3-carboxamide], less than 3000 nM. The same measure, in the same setting: for `CCOc1cccc(Nc2cccc(S(=O)(=O)NC(=O)c3cccnc3N3CC(C)CC3(C)C)n2)c1` (centres unmarked) [Compound 2526, N—[[6-(3-ethoxyanilino)-2-pyridyl]sulfonyl]-2-(2,2,4-trimethylpyrrolidin-1-yl)pyridine-3-carboxamide] the value was less than 3000 nM; for `C[C@@H]1CN(c2nc(-c3cc(F)cc(F)c3)ccc2C(=O)NS(=O)(=O)c2ccc[nH]c2=O)C(C)(C)C1` [Compound 2652, 6-(3,5-difluorophenyl)-N-[(2-oxo-1H-pyridin-3-yl)sulfonyl]-2-[(4S)-2,2,4-trimethylpyrrolidin-1-yl]pyridine-3-carboxamide], less than 3000 nM; for `COCCCN(C)c1cccc(S(=O)(=O)NC(=O)c2cccnc2N2CC(C)CC2(C)C)n1` (centres unmarked) [Compound 2734], 3000 to 10000 nM.

Regarding `CC1CN(c2ncccc2C(=O)NS(=O)(=O)c2cccc(NCc3cccc(C(F)(F)F)n3)n2)C(C)(C)C1` (centres unmarked) [Compound 2365, N—[[6-[[6-(trifluoromethyl)-2-pyridyl]methylamino]-2-pyridyl]sulfonyl]-2-(2,2,4-trimethylpyrrolidin-1-yl)pyridine-3-carboxamide], the EC30 was less than 3000 nM.

Take `CC(C)COc1ccn(-c2ccc(C(=O)NS(=O)(=O)c3cccnc3N)c(N3C[C@@H](C)CC3(C)C)n2)n1` [Compound 2191, N-[(2-amino-3-pyridyl)sulfonyl]-6-(3-isobutoxypyrazol-1-yl)-2-[(4S)-2,2,4-trimethylpyrrolidin-1-yl]pyridine-3-carboxamide]: the EC30 was less than 3000 nM. Consider `C[C@@H]1CN(c2nc(-c3ccc4c(c3)OC(F)(F)O4)ccc2C(=O)NS(=O)(=O)c2cccc(N)n2)C(C)(C)C1` [Compound 2104, N-[(6-amino-2-pyridyl)sulfonyl]-6-(2,2-difluoro-1,3-benzodioxol-5-yl)-2-[(4S)-2,2,4-trimethylpyrrolidin-1-yl]pyridine-3-carboxamide], for which the EC30 is less than 3000 nM. On the same count and under the same terms, in the case of `CC[C@@H](C)Oc1ncc(-c2ccc(C(=O)NS(=O)(=O)c3cccc(N)n3)c(N3C[C@@H](C)CC3(C)C)n2)cc1C` [Compound 2576, N-[(6-amino-2-pyridyl)sulfonyl]-6-[5-methyl-6-[(1R)-1-methylpropoxy]-3-pyridyl]-2-[(4S)-2,2,4-trimethylpyrrolidin-1-yl]pyridine-3-carboxamide] it was less than 3000 nM; in that of `C[C@@H]1CN(c2nc(-n3ccc(OCC4CC4)n3)ccc2C(=O)NS(=O)(=O)c2cccnc2N)C(C)(C)C1` [Compound 2691], less than 3000 nM; in that of `COc1ccc(-c2ccc(C(=O)NS(=O)(=O)c3ccc[nH]c3=O)c(N3C[C@@H](C)CC3(C)C)n2)cc1F` [Compound 2219, 6-(3-fluoro-4-methoxy-phenyl)-N-[(2-oxo-1H-pyridin-3-yl)sulfonyl]-2-[(4S)-2,2,4-trimethylpyrrolidin-1-yl]pyridine-3-carboxamide], 3000 to 10000 nM. On the same count and under the same terms, in the case of `C[C@@H]1CN(c2nc(-c3cccc4ccccc34)ccc2C(=O)NS(=O)(=O)c2ccc[nH]c2=O)C(C)(C)C1` [Compound 2007, 6-(1-naphthyl)-N-[(2-oxo-1H-pyridin-3-yl)sulfonyl]-2-[(4S)-2,2,4-trimethylpyrrolidin-1-yl]pyridine-3-carboxamide] it was less than 3000 nM; in that of `CC1CN(c2ncccc2C(=O)NS(=O)(=O)c2cccc(N3CC[C@H](F)C3)n2)C(C)(C)C1` (stereo partly drawn) [Compound 2393, N—[[6-[(3S)-3-fluoropyrrolidin-1-yl]-2-pyridyl]sulfonyl]-2-(2,2,4-trimethylpyrrolidin-1-yl)pyridine-3-carboxamide], 3000 to 10000 nM.

The same assay, now with this note: Table 3; compounds of Table 1 as modulators of CFTR activity; protocol not stated.
For the molecule `Cc1cc(C)c(Oc2nc(-c3cccc4c3OCO4)ccc2C(=O)NS(=O)(=O)c2ccc[nH]c2=O)c(C)c1` [Compound 525, 6-(1,3-benzodioxol-4-yl)-N-[(2-oxo-1H-pyridin-3-yl)sulfonyl]-2-(2,4,6-trimethylphenoxy)pyridine-3-carboxamide], the EC30 result is “++ (“++” means between 3 uM and 10 uM)”. In the case of `Cc1cc(C)c(Oc2nc3ccccc3cc2C(=O)NS(=O)(=O)c2cccc(N)c2)c(C)c1` [Compound 260, N-(3-aminophenyl)sulfonyl-2-(2,4,6-trimethylphenoxy)quinoline-3-carboxamide], the EC30 entry is “++ (“++” means between 3 uM and 10 uM)”. The same measure, in the same setting: in the case of `Cc1ccccc1Oc1nc(-c2cc(F)cc(OCC(C)C)c2)ccc1C(=O)NS(=O)(=O)c1ccn[nH]1` [Compound 738, 6-(3-fluoro-5-isobutoxy-phenyl)-2-(2-methylphenoxy)-N-(1H-pyrazol-5-ylsulfonyl)pyridine-3-carboxamide] it was “+++ (“+++” means <3 uM)”; in that of `CCOc1cc(F)cc(-c2ccc(C(=O)NS(=O)(=O)c3cc[nH]n3)c(Oc3c(C)cc(C)cc3C)n2)c1` [Compound 585, 6-(3-ethoxy-5-fluoro-phenyl)-N-(1H-pyrazol-3-ylsulfonyl)-2-(2,4,6-trimethylphenoxy)pyridine-3-carboxamide], “+++ (“+++” means <3 uM)”. In the case of `COc1ncccc1-c1ccc(C(=O)NS(=O)(=O)c2cccc(N)n2)c(N2CC(C)CC2(C)C)n1` (centres unmarked) [Compound 526, N-[(6-amino-2-pyridyl)sulfonyl]-6-(2-methoxy-3-pyridyl)-2-(2,2,4-trimethylpyrrolidin-1-yl)pyridine-3-carboxamide], the 30% effect concentration (EC30) entry is “+++ (“+++” means <3 uM)”. Regarding `COc1cc(S(=O)(=O)NC(=O)c2ccc(C(C)(C)C)nc2Oc2c(C)cc(C)cc2C)ccn1` [Compound 217, 6-tert-butyl-N-[(2-methoxy-4-pyridyl)sulfonyl]-2-(2,4,6-trimethylphenoxy)pyridine-3-carboxamide], the EC30 result is reported as “+++ (“+++” means <3 uM)”. Regarding `CC(C)COc1cc(F)cc(-c2ccc(C(=O)NS(=O)(=O)c3ccn[nH]3)c(N3CCC(CC#N)CC3)n2)c1` [Compound 556, 2-[4-(cyanomethyl)-1-piperidyl]-6-(3-fluoro-5-isobutoxy-phenyl)-N-(1H-pyrazol-5-ylsulfonyl)pyridine-3-carboxamide], the EC30 entry was “+ (“+” means greater than 10 uM)”.

`CC(c1ccccc1)n1c(C(=O)NS(=O)(=O)c2ccncc2)cc2c(F)cccc21` (centres unmarked) [Compound 192, 4-fluoro-1-(1-phenylethyl)-N-(4-pyridylsulfonyl)indole-2-carboxamide]: the EC30 result is “+++ (“+++” means <3 uM)”.

Consider `COc1cccc2c1cc(C(=O)NS(=O)(=O)c1cccc(N)c1)n2Cc1c(C)cc(C)cc1C` [Compound 120, N-(3-aminophenyl)sulfonyl-4-methoxy-1-[(2,4,6-trimethylphenyl)methyl]indole-2-carboxamide], for which the EC30 result was “+++ (“+++” means <3 uM)”. The same measure, in the same setting: for `Cc1ccc(-c2nc(C(C)(C)C)ccc2C(=O)NS(=O)(=O)c2ccccc2C#N)cc1` [Compound 623, 6-tert-butyl-N-(2-cyanophenyl)sulfonyl-2-(p-tolyl)pyridine-3-carboxamide] the value was “++ (“++” means between 3 uM and 10 uM)”; for `CC(C)Oc1ccc(-c2ccc(C(=O)NS(=O)(=O)c3cccc(N)n3)c(N3CCCC3C(C)(C)C)n2)cn1` (centres unmarked) [Compound 597, N-[(6-amino-2-pyridyl)sulfonyl]-2-(2-tert-butylpyrrolidin-1-yl)-6-(6-isopropoxy-3-pyridyl)pyridine-3-carboxamide], “+++ (“+++” means <3 uM)”.

(Values after patent publication US10758534B2 (Vertex Pharmaceuticals Incorporated, priority 2014, dated 2020).)
